Laboratory results from patent US12139520B2 (priority 2020, dated 2024).
Numbered stars: 1 amine (or outer) side, 2 acyl side, 3 side chain; on linkers, the order of the positions; unused ones are H or OH. Bridge positions count the residues as written; N and C are the ends. Square brackets hold non-standard residues; d marks the D form. Peptide text beside a SMILES is read from it. * marks the point of attachment. C20 diacid = O=C(O)CCCCCCCCCCCCCCCCCCC(=O)*; γGlu = O=C(O)[C@H](CCC(=O)[*:2])N[*:1]; Hyp = O=C(O)[C@@H]1C[C@@H](O)CN1; Cit = NC(=O)NCCC[C@H](N)C(=O)O

What was measured:
[1] = target: T1, hAMY3 receptor (Homo sapiens, UniProt O60896+P30988); experiment: cAMP assay for in vitro receptor activation, hAMY3-R; assay type: cell-based; conditions: cAMP assay, hAMY3 receptor; read-out: hAMY3R EC50
T1 sequence (P30988 25-474): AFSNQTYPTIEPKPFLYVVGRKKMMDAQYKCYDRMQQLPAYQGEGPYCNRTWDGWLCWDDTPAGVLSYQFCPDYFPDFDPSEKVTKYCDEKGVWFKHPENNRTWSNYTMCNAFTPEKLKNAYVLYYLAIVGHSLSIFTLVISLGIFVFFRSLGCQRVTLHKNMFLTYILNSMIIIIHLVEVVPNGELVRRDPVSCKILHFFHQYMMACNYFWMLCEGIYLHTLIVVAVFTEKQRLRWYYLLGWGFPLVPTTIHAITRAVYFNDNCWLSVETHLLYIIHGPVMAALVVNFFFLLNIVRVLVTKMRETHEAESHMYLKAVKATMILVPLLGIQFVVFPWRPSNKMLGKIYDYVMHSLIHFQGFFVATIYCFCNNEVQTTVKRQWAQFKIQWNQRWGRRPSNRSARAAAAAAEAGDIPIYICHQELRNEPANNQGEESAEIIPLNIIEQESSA
T1 sequence (O60896 24-148 partner): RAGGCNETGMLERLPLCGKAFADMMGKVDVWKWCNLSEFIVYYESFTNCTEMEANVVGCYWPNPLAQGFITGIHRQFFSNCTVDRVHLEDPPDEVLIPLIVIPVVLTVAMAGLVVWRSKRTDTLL
Method in brief: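 Read-out is TR-FRET cAMP signal, recorded one hour after reagent addition, following 30 min room-temperature stimulation of stable hAMY3 cells with graded compound doses in casein/IBMX (0.5 mM) buffer.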

[2] = target: hAM1 receptor (Homo sapiens, UniProt O60895+Q16602); experiment: cAMP assay for in vitro receptor activation, hAM1-R; assay type: cell-based; conditions: cAMP assay, hAM1 receptor; read-out: hAM1R EC50
Experimental: General Protocols for cAMP Assays for Measuring In Vitro Receptor Activation
Cells stably overexpressing the hAM1 receptor were obtained from Ogeda (now Astellas Pharma), sub-cloned and a monoclonal cell-line with an appropriate assay-window was expanded, aliquoted and frozen. An aliquot was thawed and plated in DPBS with 0.05% casein and 0.5 mM IBMX as 8000 cells/well in a 384-well format.

hAM1 receptor, sequence (Q16602 23-461): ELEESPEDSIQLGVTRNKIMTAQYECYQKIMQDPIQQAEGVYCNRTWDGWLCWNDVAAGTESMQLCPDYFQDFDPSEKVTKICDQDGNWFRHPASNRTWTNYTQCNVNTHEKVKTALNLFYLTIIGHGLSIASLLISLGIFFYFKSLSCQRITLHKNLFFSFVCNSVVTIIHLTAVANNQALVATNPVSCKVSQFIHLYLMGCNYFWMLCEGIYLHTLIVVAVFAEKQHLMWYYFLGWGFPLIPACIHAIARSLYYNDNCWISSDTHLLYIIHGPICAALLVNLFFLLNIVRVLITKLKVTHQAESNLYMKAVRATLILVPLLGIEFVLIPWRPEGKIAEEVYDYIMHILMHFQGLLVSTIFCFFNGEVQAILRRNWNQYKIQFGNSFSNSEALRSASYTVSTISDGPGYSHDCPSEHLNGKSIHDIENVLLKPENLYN
hAM1 receptor, sequence (O60895 43-175 partner): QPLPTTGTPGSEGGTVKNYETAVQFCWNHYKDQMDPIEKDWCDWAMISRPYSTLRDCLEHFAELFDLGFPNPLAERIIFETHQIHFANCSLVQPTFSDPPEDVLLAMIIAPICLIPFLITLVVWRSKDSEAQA

EC50 [1] [nM]	EC50 [2] [nM]	Compound
0.028	130	CC[C@H](C)[C@H](NC(=O)[C@H](C)NC(=O)CNC(=O)[C@H](Cc1ccccc1)NC(=O)[C@H](CC(N)=O)NC(=O)[C@H](CC(N)=O)NC(=O)[C@H](CO)NC(=O)[C@H](CO)NC(=O)[C@H](Cc1c[nH]cn1)NC(=O)[C@@H](NC(=O)[C@H](CC(C)C)NC(=O)[C@H](Cc1ccccc1)NC(=O)[C@H](CC(N)=O)NC(=O)[C@H](C)NC(=O)[C@H](CC(C)C)NC(=O)[C@H](CCCNC(=N)N)NC(=O)[C@H](CCC(N)=O)NC(=O)[C@@H](NC(=O)[C@H](C)NC(=O)[C@@H]1CSSC[C@H](NC(=O)[C@@H](N)CCCCN)C(=O)N[C@@H](CC(N)=O)C(=O)N[C@@H]([C@@H](C)O)C(=O)N[C@@H](C)C(=O)N[C@@H]([C@@H](C)O)C(=O)N1)[C@@H](C)O)C(C)C)C(=O)N[C@@H](C)C(=O)N1CCC[C@H]1C(=O)N[C@@H](CO)C(=O)N[C@H](C(=O)N[C@@H](CCCCN)C(=O)N[C@H](C(=O)NCC(=O)N1CCC[C@H]1C(=O)N[C@@H](CC(N)=O)C(=O)NCC(=O)N[C@@H](Cc1ccc(O)cc1)C(N)=O)[C@@H](C)CC)[C@@H](C)O [compound 128] (H-KCNTATCATQRLANFLVHSSNNFGAIAPSTKIGPNGY-NH2; disulfide 2-7; N-terminus assumed)
0.01	> 5000	CC[C@H](C)[C@H](NC(=O)[C@H](CCC(N)=O)NC(=O)[C@H](Cc1c[nH]cn1)NC(=O)[C@H](C)NC(=O)[C@H](CC(C)C)NC(=O)[C@H](CCCNC(=N)N)NC(=O)[C@H](CCC(N)=O)NC(=O)[C@@H](NC(=O)[C@@H](NC(=O)[C@@H]1CSSC[C@H](NC(=O)[C@H](CCCNC(=N)N)NC(=O)CC[C@H](NC(=O)CCCCCCCCCCCCCCCCCCC(=O)O)C(=O)O)C(=O)N[C@@H](CC(N)=O)C(=O)N[C@@H]([C@@H](C)O)C(=O)N[C@@H](C)C(=O)N[C@@H]([C@@H](C)O)C(=O)N1)[C@@H](C)O)C(C)C)C(=O)N[C@@H](Cc1ccc(O)cc1)C(=O)N[C@@H](CCC(N)=O)C(=O)N[C@@H](Cc1ccccc1)C(=O)N[C@H](C(=O)N[C@@H](CC(=O)O)C(=O)N[C@@H](CCCCN)C(=O)N[C@@H](CC(=O)O)C(=O)N[C@@H](CCCCN)C(=O)N[C@@H](CC(=O)O)C(=O)N[C@@H](CC(N)=O)C(=O)N[C@H](C(=O)N[C@@H](C)C(=O)N1CCC[C@H]1C(=O)N1CCC[C@H]1C(=O)N[C@H](C(=O)N[C@@H](CC(N)=O)C(=O)N[C@H](C(=O)NCC(=O)N[C@@H](CO)C(=O)N[C@@H](CC(N)=O)C(=O)NCC(=O)N1C[C@H](O)C[C@H]1C(N)=O)C(C)C)[C@@H](C)O)C(C)C)[C@@H](C)O [compound 39] ({C20 diacid-γGlu}-RCNTATCTVQRLAHQIYQFTDKDKDNVAPPTNVGSNG[Hyp]-NH2; disulfide 2-7)
0.008	> 5000	CC[C@H](C)[C@H](NC(=O)[C@H](CCC(N)=O)NC(=O)[C@H](CCC(=O)O)NC(=O)[C@H](C)NC(=O)[C@H](CC(C)C)NC(=O)[C@H](CCCNC(N)=O)NC(=O)[C@H](C)NC(=O)[C@@H](NC(=O)[C@@H](NC(=O)[C@@H]1CSSC[C@H](NC(=O)[C@@H](N)CCCNC(=N)N)C(=O)N[C@@H](CCC(N)=O)C(=O)N[C@@H](C)C(=O)N[C@@H](CO)C(=O)N[C@@H]([C@@H](C)O)C(=O)N1)[C@@H](C)O)C(C)C)C(=O)N[C@@H](C)C(=O)N[C@@H](CCC(N)=O)C(=O)N[C@@H](Cc1ccc(O)cc1)C(=O)N[C@H](C(=O)N[C@@H](CC(=O)O)C(=O)N[C@@H](CCCCN)C(=O)N[C@@H](CC(=O)O)C(=O)N[C@@H](CCCCN)C(=O)N[C@@H](CC(=O)O)C(=O)N[C@@H](CCC(N)=O)C(=O)N[C@H](C(=O)N[C@@H](C)C(=O)N1CCC[C@H]1C(=O)N1CCC[C@H]1C(=O)N[C@H](C(=O)N[C@@H](CCC(=O)O)C(=O)N[C@H](C(=O)NCC(=O)N1CCC[C@H]1C(=O)N[C@@H](CC(N)=O)C(=O)N[C@@H](CO)C(=O)N1C[C@H](O)C[C@H]1C(N)=O)C(C)C)[C@@H](C)O)C(C)C)[C@@H](C)O [compound 33] (H-RCQASTCTVA[Cit]LAEQIAQYTDKDKDQVAPPTEVGPNS[Hyp]-NH2; disulfide 2-7; N-terminus assumed)
–	> 5000	CC[C@H](C)[C@H](NC(=O)[C@H](CCC(N)=O)NC(=O)[C@H](Cc1c[nH]cn1)NC(=O)[C@H](C)NC(=O)[C@H](CC(C)C)NC(=O)[C@H](CCCNC(=N)N)NC(=O)[C@H](CCC(N)=O)NC(=O)[C@@H](NC(=O)[C@@H](NC(=O)[C@@H]1CSSC[C@H](NC(=O)[C@H](CCCCN)NC(=O)CC[C@H](NC(=O)CCCCCCCCCCCCCCCCCCC(=O)O)C(=O)O)C(=O)N[C@@H](CC(N)=O)C(=O)N[C@@H]([C@@H](C)O)C(=O)N[C@@H](Cc2ccc(O)cc2)C(=O)N[C@@H]([C@@H](C)O)C(=O)N1)[C@@H](C)O)C(C)C)C(=O)N[C@@H](Cc1ccc(O)cc1)C(=O)N[C@@H](CCC(N)=O)C(=O)N[C@@H](Cc1ccccc1)C(=O)N[C@H](C(=O)N[C@@H](CC(=O)O)C(=O)N[C@@H](CCCCN)C(=O)N[C@@H](CC(=O)O)C(=O)N[C@@H](CCCCN)C(=O)N[C@@H](CC(=O)O)C(=O)N[C@@H](CC(N)=O)C(=O)N[C@H](C(=O)N[C@@H](C)C(=O)N1CCC[C@H]1C(=O)N1CCC[C@H]1C(=O)N[C@H](C(=O)N[C@@H](CC(N)=O)C(=O)N[C@H](C(=O)NCC(=O)N[C@@H](CO)C(=O)N[C@@H](CC(N)=O)C(=O)NCC(=O)N1C[C@H](O)C[C@H]1C(N)=O)C(C)C)[C@@H](C)O)C(C)C)[C@@H](C)O [compound 231] ({C20 diacid-γGlu}-KCNTYTCTVQRLAHQIYQFTDKDKDNVAPPTNVGSNG[Hyp]-NH2; disulfide 2-7)
–	> 5000	CC[C@H](C)[C@H](NC(=O)[C@H](CCCCN)NC(=O)[C@H](CO)NC(=O)[C@H](CCCNC(=N)N)NC(=O)[C@@H]1CCCN1C(=O)[C@H](C)NC(=O)[C@@H](NC(=O)[C@H](CC(N)=O)NC(=O)[C@H](CC(=O)O)NC(=O)[C@H](CCCCN)NC(=O)[C@H](CC(=O)O)NC(=O)[C@H](CCCCN)NC(=O)[C@H](CC(=O)O)NC(=O)[C@@H](NC(=O)[C@H](Cc1ccccc1)NC(=O)[C@H](CCC(N)=O)NC(=O)[C@@H](NC(=O)[C@H](CC(C)C)NC(=O)[C@H](Cc1ccccc1)NC(=O)[C@H](CC(N)=O)NC(=O)[C@H](C)NC(=O)[C@H](CC(C)C)NC(=O)[C@H](CCCNC(=N)N)NC(=O)[C@H](CCC(N)=O)NC(=O)[C@@H](NC(=O)[C@H](C)NC(=O)[C@@H]1CSSC[C@H](NC(=O)[C@@H](N)CCCCN)C(=O)N[C@@H](CC(N)=O)C(=O)N[C@@H]([C@@H](C)O)C(=O)N[C@@H](C)C(=O)N[C@@H]([C@@H](C)O)C(=O)N1)[C@@H](C)O)C(C)C)[C@@H](C)O)C(C)C)C(=O)N[C@@H](CO)C(=O)N1CCC[C@H]1C(=O)N[C@@H](CCC(N)=O)C(=O)NCC(=O)N[C@@H](Cc1ccc(O)cc1)C(N)=O [compound 234] (H-KCNTATCATQRLANFLVQFTDKDKDNVAPRSKISPQGY-NH2; disulfide 2-7; N-terminus assumed)
–	> 5000	CC[C@H](C)[C@H](NC(=O)[C@H](C)NC(=O)CNC(=O)[C@H](Cc1ccccc1)NC(=O)[C@H](CC(N)=O)NC(=O)[C@H](CC(N)=O)NC(=O)[C@H](CO)NC(=O)[C@H](CO)NC(=O)[C@H](Cc1c[nH]cn1)NC(=O)[C@@H](NC(=O)[C@H](CC(C)C)NC(=O)[C@H](Cc1ccccc1)NC(=O)[C@H](CC(N)=O)NC(=O)[C@H](C)NC(=O)[C@H](CC(C)C)NC(=O)[C@H](CCCNC(=N)N)NC(=O)[C@H](CCC(N)=O)NC(=O)[C@@H](NC(=O)[C@H](C)NC(=O)[C@@H]1CSSC[C@H](NC(=O)[C@@H](N)CCCCN)C(=O)N[C@@H](CC(N)=O)C(=O)N[C@@H]([C@@H](C)O)C(=O)N[C@@H](C)C(=O)N[C@@H]([C@@H](C)O)C(=O)N1)[C@@H](C)O)C(C)C)C(=O)N[C@@H](CC(C)C)C(=O)N1CCC[C@H]1C(=O)N[C@@H](CO)C(=O)N[C@H](C(=O)N[C@@H](CCCCN)C(=O)N[C@H](C(=O)NCC(=O)N[C@@H](CO)C(=O)N[C@@H](CC(N)=O)C(=O)NCC(=O)N[C@@H](Cc1ccc(O)cc1)C(N)=O)[C@@H](C)CC)[C@@H](C)O [compound 207] (H-KCNTATCATQRLANFLVHSSNNFGAILPSTKIGSNGY-NH2; disulfide 2-7; N-terminus assumed)
